Source: publication PMC5118716, “Structural basis of TRPA1 inhibition by HC-030031 utilizing species-specific differences” (Scientific Reports, 2016)
Residue numbers refer to the chain shown, from its start.

What was measured:
Assay in all cases: two-electrode voltage clamp, X. laevis oocytes
Assay type in all cases: cell-based
fTRPA1 [1] = target: T1, fTRPA1 (Xenopus tropicalis, UniProt A0A8J0QD66); conditions: agonist
T1 construct: gene trpa1; full-length wild type (1144 residues); X. laevis oocytes (cRNA)
T1 sequence (A0A8J0QD66 1-1144): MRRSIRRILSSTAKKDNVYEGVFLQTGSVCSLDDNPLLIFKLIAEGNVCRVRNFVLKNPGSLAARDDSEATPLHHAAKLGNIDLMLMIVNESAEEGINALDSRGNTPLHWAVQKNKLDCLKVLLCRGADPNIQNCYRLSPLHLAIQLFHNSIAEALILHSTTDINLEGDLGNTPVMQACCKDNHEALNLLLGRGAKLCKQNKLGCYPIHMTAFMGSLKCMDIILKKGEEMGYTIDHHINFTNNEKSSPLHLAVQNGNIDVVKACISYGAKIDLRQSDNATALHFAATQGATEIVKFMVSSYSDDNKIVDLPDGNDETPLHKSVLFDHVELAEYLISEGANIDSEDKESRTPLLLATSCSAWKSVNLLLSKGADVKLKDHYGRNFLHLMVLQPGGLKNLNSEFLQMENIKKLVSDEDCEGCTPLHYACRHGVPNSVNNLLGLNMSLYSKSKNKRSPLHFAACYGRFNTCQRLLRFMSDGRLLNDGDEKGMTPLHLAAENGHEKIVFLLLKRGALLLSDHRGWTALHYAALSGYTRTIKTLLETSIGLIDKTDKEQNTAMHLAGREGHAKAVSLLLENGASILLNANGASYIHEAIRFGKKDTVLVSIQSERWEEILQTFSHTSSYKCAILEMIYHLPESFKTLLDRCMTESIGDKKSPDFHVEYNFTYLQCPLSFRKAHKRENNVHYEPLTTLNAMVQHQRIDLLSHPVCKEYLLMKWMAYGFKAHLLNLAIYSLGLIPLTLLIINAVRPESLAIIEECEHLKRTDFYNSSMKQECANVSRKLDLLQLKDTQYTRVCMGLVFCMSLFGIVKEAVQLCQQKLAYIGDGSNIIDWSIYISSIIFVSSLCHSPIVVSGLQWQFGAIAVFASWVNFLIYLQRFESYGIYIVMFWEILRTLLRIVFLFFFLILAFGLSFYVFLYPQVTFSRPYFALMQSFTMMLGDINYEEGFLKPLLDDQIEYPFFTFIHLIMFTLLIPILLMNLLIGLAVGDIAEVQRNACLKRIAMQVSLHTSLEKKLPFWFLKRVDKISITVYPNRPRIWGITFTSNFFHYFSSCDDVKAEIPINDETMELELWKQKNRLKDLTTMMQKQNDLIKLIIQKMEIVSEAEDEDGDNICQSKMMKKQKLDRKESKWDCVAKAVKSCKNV

hTRPA1 [2] = target: T2, hTRPA1 (Homo sapiens, UniProt O75762); conditions: agonist, non-electrophilic; pH 7.4, -60 mV
T2 construct: gene TRPA1; full-length wild type (1119 residues); X. laevis oocytes (cRNA) or HEK293T cells (pcDNA3.1)
T2 sequence (O75762 whole entry): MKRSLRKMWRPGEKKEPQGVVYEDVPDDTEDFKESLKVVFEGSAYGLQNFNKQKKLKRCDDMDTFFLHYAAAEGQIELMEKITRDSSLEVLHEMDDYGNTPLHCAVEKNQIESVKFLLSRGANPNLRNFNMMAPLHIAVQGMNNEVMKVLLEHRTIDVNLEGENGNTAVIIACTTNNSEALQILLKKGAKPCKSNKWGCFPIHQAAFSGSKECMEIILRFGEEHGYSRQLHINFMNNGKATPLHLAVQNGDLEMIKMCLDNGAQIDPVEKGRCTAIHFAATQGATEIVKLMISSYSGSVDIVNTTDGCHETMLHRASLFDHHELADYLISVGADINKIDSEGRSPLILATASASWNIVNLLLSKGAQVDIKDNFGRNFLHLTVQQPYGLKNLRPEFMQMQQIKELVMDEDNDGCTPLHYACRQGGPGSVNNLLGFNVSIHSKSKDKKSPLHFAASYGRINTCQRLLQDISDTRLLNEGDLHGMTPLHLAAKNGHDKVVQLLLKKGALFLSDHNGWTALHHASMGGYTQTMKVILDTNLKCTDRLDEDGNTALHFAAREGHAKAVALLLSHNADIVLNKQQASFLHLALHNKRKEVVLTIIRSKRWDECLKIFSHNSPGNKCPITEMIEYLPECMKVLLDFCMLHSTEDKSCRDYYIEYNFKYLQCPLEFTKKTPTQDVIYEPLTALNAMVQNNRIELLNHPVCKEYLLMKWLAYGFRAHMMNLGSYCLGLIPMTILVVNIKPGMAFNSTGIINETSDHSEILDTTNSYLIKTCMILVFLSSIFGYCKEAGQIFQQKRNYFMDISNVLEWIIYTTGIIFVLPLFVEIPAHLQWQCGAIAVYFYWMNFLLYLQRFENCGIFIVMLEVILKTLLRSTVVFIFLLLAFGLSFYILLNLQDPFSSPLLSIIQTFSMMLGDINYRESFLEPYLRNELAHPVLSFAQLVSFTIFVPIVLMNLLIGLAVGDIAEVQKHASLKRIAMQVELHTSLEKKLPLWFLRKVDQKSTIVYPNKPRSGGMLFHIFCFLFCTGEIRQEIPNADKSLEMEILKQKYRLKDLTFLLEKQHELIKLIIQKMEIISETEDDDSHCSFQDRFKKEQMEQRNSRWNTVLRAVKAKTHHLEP

zTRPA1b = target: T3, zTRPA1b (Danio rerio, UniProt A0A8M1N2Z4, R860N); conditions: antagonist; vs 1 mM CA; pH 7.4, 1.8 mM CaCl2, -60 mV
T3 construct: gene trpa1b; full-length; X. laevis oocytes (cRNA)
T3 sequence (A0A8M1N2Z4 1-1120 R860N): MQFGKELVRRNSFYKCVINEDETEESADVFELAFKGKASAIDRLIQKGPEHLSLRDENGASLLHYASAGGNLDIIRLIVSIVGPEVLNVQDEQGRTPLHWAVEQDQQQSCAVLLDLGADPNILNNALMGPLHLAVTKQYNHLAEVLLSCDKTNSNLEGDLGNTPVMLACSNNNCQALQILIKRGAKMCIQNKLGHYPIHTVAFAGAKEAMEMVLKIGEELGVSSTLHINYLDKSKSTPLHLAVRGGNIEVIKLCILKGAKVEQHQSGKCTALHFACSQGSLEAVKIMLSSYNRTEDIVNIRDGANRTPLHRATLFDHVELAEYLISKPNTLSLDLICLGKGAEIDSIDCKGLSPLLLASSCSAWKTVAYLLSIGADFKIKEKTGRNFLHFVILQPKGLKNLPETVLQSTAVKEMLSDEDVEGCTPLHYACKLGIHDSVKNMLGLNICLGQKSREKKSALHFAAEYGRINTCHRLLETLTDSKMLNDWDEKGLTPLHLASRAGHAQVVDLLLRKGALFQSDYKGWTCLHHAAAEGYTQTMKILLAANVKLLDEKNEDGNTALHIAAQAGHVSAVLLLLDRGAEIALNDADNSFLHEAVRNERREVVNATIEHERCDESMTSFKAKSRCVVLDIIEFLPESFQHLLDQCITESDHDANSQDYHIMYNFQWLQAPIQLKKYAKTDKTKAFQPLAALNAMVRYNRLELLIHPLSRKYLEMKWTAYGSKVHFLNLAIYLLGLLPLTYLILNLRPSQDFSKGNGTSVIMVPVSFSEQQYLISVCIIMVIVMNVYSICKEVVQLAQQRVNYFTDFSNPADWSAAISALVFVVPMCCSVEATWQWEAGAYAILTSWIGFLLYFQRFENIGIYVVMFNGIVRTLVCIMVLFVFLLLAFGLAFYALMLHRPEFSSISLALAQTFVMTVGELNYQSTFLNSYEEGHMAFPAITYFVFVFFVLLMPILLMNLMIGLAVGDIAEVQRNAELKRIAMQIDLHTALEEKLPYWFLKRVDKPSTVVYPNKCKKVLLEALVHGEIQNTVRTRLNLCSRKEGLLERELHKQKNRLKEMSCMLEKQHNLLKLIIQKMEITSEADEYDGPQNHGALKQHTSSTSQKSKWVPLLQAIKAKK

fTRPA1 [3] = target: T4, fTRPA1 (Xenopus tropicalis, UniProt A0A8J0QD66, S880N); conditions: antagonist; vs 0.5 mM CA; pH 7.4, 1.8 mM CaCl2, -60 mV
T4 construct: gene trpa1; full-length wild type (1144 residues); X. laevis oocytes (cRNA)
T4 sequence (A0A8J0QD66 1-1144 S880N): T1 sequence (A0A8J0QD66 1-1144) with S880N

hTRPA1 [4] = target: T5, hTRPA1 (Homo sapiens, UniProt O75762, N855S); conditions: antagonist; vs 0.3 mM CA; pH 7.4, 1.8 mM CaCl2, -60 mV
T5 construct: gene TRPA1; full-length wild type (1119 residues); X. laevis oocytes (cRNA) or HEK293T cells (pcDNA3.1)
T5 sequence (O75762 whole entry N855S): as the sequence (O75762 whole entry) above, with N855S counted along it

Structure (SMILES): O=CC=Cc1ccccc1 [CA, cinnamaldehyde]
- two-electrode voltage clamp, X. laevis oocytes (fTRPA1 [1]; 0.5 mM, covalent, pH 7.4, 1.8 mM CaCl2, -60 mV): TRPA1-mediated currents were activated by CA with approximately similar amplitude

Structure (SMILES): Cc1ccc(C(C)C)cc1O [carvacrol]
- two-electrode voltage clamp, X. laevis oocytes (hTRPA1 [2]): hTRPA1 and fTRPA1 currents activated by the non-electrophilic compound carvacrol
- two-electrode voltage clamp, X. laevis oocytes (fTRPA1 [1]; non-electrophilic, pH 7.4, -60 mV): hTRPA1 and fTRPA1 currents activated by the non-electrophilic compound carvacrol

Structure (SMILES): CC(C)c1ccc(NC(=O)Cn2cnc3c2c(=O)n(C)c(=O)n3C)cc1 [HC, HC-030031]
- inhibition at 50 μM (zTRPA1b): significant reduction in current amplitudes in zTRPA1-R860N although wt-zTRPA1b showed no inhibition
- inhibition at 50 μM (fTRPA1 [3]): HC reduced the CA-evoked currents in the second application in fTRPA1-S880N
- inhibition at 50 μM (hTRPA1 [4]): hTRPA1-N855S showed significantly less sensitivity to HC than wt-hTRPA1 at all concentrations examined
